From ChEMBL document CHEMBL1201862, “PubChem BioAssay data set” (2004)
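These data come from cells grown in 96-well plates and exposed to compound for 48 hours at five concentrations. GI50 is the concentration that inhibits growth by half.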 Activity calls are given as the source filed them. Cut-off read from the data, not from the text of the source: active = GI50 up to about 1.1 µM and inactive = higher.

Key:
Experiment in all cases: NCI anticancer screen, dose series, 48 h
HOP-18 = system: HOP-18
NCI-H23 = system: NCI-H23
OVCAR-4 = system: OVCAR-4
HOP-92 = system: HOP-92
UACC-62 = system: UACC-62
OVCAR-8 = system: OVCAR-8
COLO 205 = system: COLO 205
Malme-3M = system: Malme-3M
OVCAR-3 = system: OVCAR-3
U-251 = system: U-251
RPMI-8226 = system: RPMI-8226
EKVX = system: EKVX
SK-OV-3 = system: SK-OV-3
786-0 = system: 786-0
K562 = system: K562
DLD-1 = system: DLD-1
SW-620 = system: SW-620
KM-20L2 = system: KM-20L2
KM12 = system: KM12
M14 = system: M14
SK-MEL-28 = system: SK-MEL-28
HL-60 = system: HL-60
HT-29 = system: HT-29
A549 = system: A549
UO-31 = system: UO-31
OVCAR-5 = system: OVCAR-5
TK-10 = system: TK-10
CCRF-CEM = system: CCRF-CEM
SN12C = system: SN12C
SF-295 = system: SF-295
HCT-116 = system: HCT-116
SF-268 = system: SF-268
CAKI-1 = system: CAKI-1
SK-MEL-5 = system: SK-MEL-5
M19-MEL = system: M19-MEL
RXF 393 = system: RXF 393
SNB-19 = system: SNB-19
HOP-62 = system: HOP-62
MOLT-4 = system: MOLT-4
IGROV-1 = system: IGROV-1
SF-539 = system: SF-539
LXFL 529 = system: LXFL 529
SR = system: SR
NCI-H522 = system: NCI-H522
HCC 2998 = system: HCC 2998
MDA-N = system: MDA-N
LOX IMVI = system: LOX IMVI
MDA-MB-231 = system: MDA-MB-231
NCI/ADR-RES = system: NCI/ADR-RES
Hs-578T = system: Hs-578T
UACC-257 = system: UACC-257
MDA-MB-435 = system: MDA-MB-435
MCF7 = system: MCF7
ACHN = system: ACHN
NCI-H460 = system: NCI-H460
NCI-H226 = system: NCI-H226
PC-3 = system: PC-3
SNB-75 = system: SNB-75
BT-549 = system: BT-549
DU-145 = system: DU-145
T47D = system: T47D
A498 = system: A498
SK-MEL-2 = system: SK-MEL-2
HCT-15 = system: HCT-15

Cc1nn2c3c(nnc2c1C#N)C(=O)NN=C(N)S3
GI50 (HOP-18): > 100 µM (inactive)
GI50 (NCI-H23): > 100 µM (inactive)
GI50 (OVCAR-4): > 100 µM (inactive)
GI50 (HOP-92): > 100 µM (inactive)
GI50 (UACC-62): > 100 µM (inactive)
GI50 (OVCAR-8): > 100 µM (inactive)
GI50 (COLO 205): > 100 µM (inactive)
GI50 (Malme-3M): > 100 µM (inactive)
GI50 (OVCAR-3): > 100 µM (inactive)
GI50 (U-251): > 100 µM (inactive)
GI50 (RPMI-8226): > 100 µM (inactive)
GI50 (EKVX): > 100 µM (inactive)
GI50 (SK-OV-3): > 100 µM (inactive)
GI50 (786-0): > 100 µM (inactive)
GI50 (K562): > 100 µM (inactive)
GI50 (DLD-1): > 100 µM (inactive)
GI50 (SW-620): > 100 µM (inactive)
GI50 (KM-20L2): > 100 µM (inactive)
GI50 (KM12): > 100 µM (inactive)
GI50 (M14): > 100 µM (inactive)
GI50 (SK-MEL-28): > 100 µM (inactive)
GI50 (HL-60): > 100 µM (inactive)
GI50 (HT-29): > 100 µM (inactive)
GI50 (A549): > 100 µM (inactive)
GI50 (UO-31): > 100 µM (inactive)
GI50 (OVCAR-5): > 100 µM (inactive)
GI50 (TK-10): > 100 µM (inactive)
GI50 (CCRF-CEM): > 100 µM (inactive)
GI50 (SN12C): > 100 µM (inactive)
GI50 (SF-295): > 100 µM (inactive)
GI50 (HCT-116): > 100 µM (inactive)
GI50 (SF-268): > 100 µM (inactive)
GI50 (CAKI-1): > 100 µM (inactive)
GI50 (SK-MEL-5): > 100 µM (inactive)
GI50 (M19-MEL): > 100 µM (inactive)
GI50 (RXF 393): > 100 µM (inactive)
GI50 (SNB-19): > 100 µM (inactive)
GI50 (HOP-62): > 100 µM (inactive)
GI50 (MOLT-4): > 100 µM (inactive)
GI50 (IGROV-1): > 100 µM (inactive)
GI50 (SF-539): > 100 µM (inactive)
GI50 (LXFL 529): > 100 µM (inactive)
GI50 (SR): > 100 µM (inactive)
GI50 (NCI-H522): > 100 µM (inactive)

CCCCCCCCCCNC(=O)CCC(NC(=O)c1ccc(N(C)Cc2cnc3nc(N)nc(N)c3n2)cc1)C(=O)NCCCCCCCCCC (stereo not drawn)
GI50 (NCI-H23): 14.7 µM (inactive)
GI50 (OVCAR-4): 8.99 µM (inactive)
GI50 (HCC 2998): 5.75 µM (inactive)
GI50 (HOP-92): 9.1 µM (inactive)
GI50 (UACC-62): 18.9 µM (inactive)
GI50 (MDA-N): 4.47 µM (inactive)
GI50 (OVCAR-8): 8.45 µM (inactive)
GI50 (COLO 205): 7.01 µM (inactive)
GI50 (LOX IMVI): 2.36 µM (inactive)
GI50 (Malme-3M): 12.4 µM (inactive)
GI50 (MDA-MB-231): 3.57 µM (inactive)
GI50 (OVCAR-3): 10 µM (inactive)
GI50 (U-251): 4.2 µM (inactive)
GI50 (NCI/ADR-RES): > 90.6 µM (inactive)
GI50 (RPMI-8226): 10 µM (inactive)
GI50 (EKVX): 12.3 µM (inactive)
GI50 (SK-OV-3): 27.8 µM (inactive)
GI50 (786-0): 3.05 µM (inactive)
GI50 (Hs-578T): 3.09 µM (inactive)
GI50 (K562): 0.698 µM (active)
GI50 (SW-620): 3.13 µM (inactive)
GI50 (KM12): 4.89 µM (inactive)
GI50 (M14): 8.97 µM (inactive)
GI50 (SK-MEL-28): 8.79 µM (inactive)
GI50 (HL-60): 3.4 µM (inactive)
GI50 (UACC-257): 7.89 µM (inactive)
GI50 (HT-29): 10.5 µM (inactive)
GI50 (MDA-MB-435): 4.2 µM (inactive)
GI50 (A549): 28.6 µM (inactive)
GI50 (UO-31): 74.3 µM (inactive)
GI50 (MCF7): 4.06 µM (inactive)
GI50 (OVCAR-5): 23.8 µM (inactive)
GI50 (TK-10): 55.8 µM (inactive)
GI50 (CCRF-CEM): 2.53 µM (inactive)
GI50 (ACHN): 44.7 µM (inactive)
GI50 (NCI-H460): 4.06 µM (inactive)
GI50 (NCI-H226): 18.8 µM (inactive)
GI50 (PC-3): 5.62 µM (inactive)
GI50 (SN12C): 8.07 µM (inactive)
GI50 (SF-295): 43.7 µM (inactive)
GI50 (HCT-116): 3.71 µM (inactive)
GI50 (SF-268): 9.62 µM (inactive)
GI50 (SNB-75): 11.9 µM (inactive)
GI50 (BT-549): 9.27 µM (inactive)
GI50 (CAKI-1): > 100 µM (inactive)
GI50 (DU-145): 20.1 µM (inactive)
GI50 (T47D): 11.6 µM (inactive)
GI50 (SK-MEL-5): 3.9 µM (inactive)
GI50 (RXF 393): 5.53 µM (inactive)
GI50 (SNB-19): 9.46 µM (inactive)
GI50 (HOP-62): 31.8 µM (inactive)
GI50 (A498): 30.5 µM (inactive)
GI50 (MOLT-4): 2.99 µM (inactive)
GI50 (IGROV-1): 6.04 µM (inactive)
GI50 (SF-539): 5.13 µM (inactive)
GI50 (SK-MEL-2): 13.6 µM (inactive)
GI50 (HCT-15): 17.9 µM
GI50 (SR): 2.94 µM (inactive)
GI50 (NCI-H522): 4.43 µM (inactive)
